The target of test [1] is Atypical chemokine receptor 3 (Homo sapiens, UniProt P25106). Put plainly: Displacement of [125I]SDF-1alpha from ACKR3 (unknown origin) expressed in CHO cells after 1 hr by scintillation counting method. Type of test: cell-based.
The target in test [2] is C-X-C chemokine receptor type 4 (Homo sapiens, UniProt P61073). Put plainly: Displacement of [125I]SDF-1alpha from CXCR4 (unknown origin) expressed in HEK293 cells after 1 hr by scintillation counting method. The test is classed as cell-based. A general note: Displacement assays read how much labelled ligand stays bound in the presence of the test substance.

The values that follow come from ChEMBL document CHEMBL4043305, “Structure-Activity Relationship Study of Cyclic Pentapeptide Ligands for Atypical Chemokine Receptor 3 (ACKR3)” (J Med Chem, 2018).

Chain of Atypical chemokine receptor 3 (P25106 whole entry): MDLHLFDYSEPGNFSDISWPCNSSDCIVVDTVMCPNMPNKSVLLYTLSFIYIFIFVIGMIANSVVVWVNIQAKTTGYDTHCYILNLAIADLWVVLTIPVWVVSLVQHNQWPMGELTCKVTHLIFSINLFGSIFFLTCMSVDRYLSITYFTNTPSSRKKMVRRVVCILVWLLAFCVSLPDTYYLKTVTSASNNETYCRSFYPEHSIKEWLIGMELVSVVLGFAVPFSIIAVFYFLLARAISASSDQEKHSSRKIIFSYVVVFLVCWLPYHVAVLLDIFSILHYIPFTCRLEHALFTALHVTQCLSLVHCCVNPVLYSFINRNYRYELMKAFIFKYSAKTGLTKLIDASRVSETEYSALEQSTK
Chain of C-X-C chemokine receptor type 4 (P61073 whole entry): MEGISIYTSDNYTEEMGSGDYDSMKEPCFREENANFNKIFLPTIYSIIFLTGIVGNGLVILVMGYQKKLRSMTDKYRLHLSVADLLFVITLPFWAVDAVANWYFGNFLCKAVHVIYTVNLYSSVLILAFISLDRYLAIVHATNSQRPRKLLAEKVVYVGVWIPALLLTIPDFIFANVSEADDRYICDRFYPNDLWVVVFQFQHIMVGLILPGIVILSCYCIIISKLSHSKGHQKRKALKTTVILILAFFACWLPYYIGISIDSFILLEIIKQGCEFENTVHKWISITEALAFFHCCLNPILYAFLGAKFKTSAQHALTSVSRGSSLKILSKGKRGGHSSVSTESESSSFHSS

For orientation: IC50 means the concentration needed to halve the response being measured. With `CN1C(=O)[C@H](CCCNC(=N)N)NC(=O)[C@@H](Cc2ccc(O)cc2)NC(=O)[C@@H]2Cc3ccccc3CN2C(=O)[C@H](Cc2ccc3ccccc3c2)NC(=O)[C@@H]1CCCNC(N)=O`, the concentration for half-maximal inhibition (IC50) in test [1] is 4.2 µM; in test [2], over 30 µM.
Consider `CN1C(=O)[C@H](CCCNC(=N)N)NC(=O)[C@@H](Cc2ccc(O)cc2)NC(=O)[C@@H]2CCCN2C(=O)[C@H](Cc2ccc3ccccc3c2)NC(=O)[C@@H]1CCNC(=N)N`, for which the IC50 was 1.5 µM in test [1] and over 30 µM in test [2].
As for `CN1C(=O)[C@H](CCCNC(=N)N)NC(=O)[C@@H](Cc2csc3ccccc23)NC(=O)[C@@H]2CCCN2C(=O)[C@H](Cc2ccc3ccccc3c2)NC(=O)[C@@H]1CCCNC(N)=O`, the values for the IC50 in test [1] and in test [2] were 0.54 µM and over 30 µM, respectively.
Turning to `CN1C(=O)[C@H](CCCCN)NC(=O)[C@@H](Cc2ccc(O)cc2)NC(=O)[C@@H]2CCCN2C(=O)[C@H](Cc2ccc3ccccc3c2)NC(=O)[C@@H]1CCCNC(=N)N`, the IC50 in test [1] was 2 to 24 µM; in test [2] it was over 30 µM.
`CC[C@H](C)[C@H]1C(=O)N[C@H](Cc2ccc(O)cc2)C(=O)N[C@@H](CCCNC(=N)N)C(=O)N(C)[C@@H](CCCNC(N)=O)C(=O)N[C@@H](Cc2ccc3ccccc3c2)C(=O)N1C`: the IC50 in test [1] was 2.2 µM; in test [2] it was over 30 µM.
As to `CN1C(=O)[C@H](CCCNC(=N)N)NC(=O)[C@@H](Cc2ccc(O)cc2)NC(=O)[C@@H]2CCCN2C(=O)[C@H](Cc2ccc3ccccc3c2)NC(=O)[C@@H]1CCCNC(N)=O`, the IC50 in test [1] is 13 µM; in test [2] it was over 30 µM.
`CN1C(=O)[C@H](CCCNC(=N)N)NC(=O)[C@@H](Cc2ccc(O)cc2)NC(=O)[C@@H]2CCCN2C(=O)[C@H](Cc2ccc3ccccc3c2)NC(=O)[C@@H]1CCCCNC(=N)N`: the results for the IC50 in test [1] and in test [2] were 0.56 µM and over 30 µM, respectively.
In the case of `CN1C(=O)[C@H](CCCNC(=N)N)NC(=O)[C@@H](Cc2ccc([N+](=O)[O-])cc2)NC(=O)[C@@H]2CCCN2C(=O)[C@H](Cc2ccc3ccccc3c2)NC(=O)[C@@H]1CCCNC(N)=O`, the IC50 in test [1] is 2 µM; in test [2], over 30 µM.
In the case of `CN1C(=O)[C@H](CCCNC(=N)N)NC(=O)[C@@H](Cc2ccc(O)cc2)NC(=O)[C@H](Cc2ccc3ccccc3c2)N(C)C(=O)[C@H](Cc2ccc3ccccc3c2)NC(=O)[C@@H]1CCCNC(N)=O`, the IC50 in test [1] is 2.6 µM; in test [2], over 30 µM.
Turning to `CN1C(=O)[C@H](CCCNC(=N)N)NC(=O)[C@@H](Cc2ccc(O)cc2)NC(=O)[C@@H]2CCCN2C(=O)[C@H](Cc2ccc3ccccc3c2)NC(=O)[C@@H]1CC(N)=O`, the figures for the IC50 in test [1] and in test [2] were 4.1 µM and over 30 µM, respectively.
For `CN1C(=O)[C@H](CCCNC(=N)N)NC(=O)[C@@H](Cc2ccc(O)cc2)NC(=O)[C@@H]2CCCN2C(=O)[C@H](Cc2ccc3ccccc3c2)NC(=O)[C@@H]1CCC(N)=O`, in that order: 5.8 µM and over 30 µM.
Turning to `CN1C(=O)[C@H](CCCNC(=N)N)NC(=O)[C@@H](Cc2c[nH]c3ccccc23)NC(=O)[C@@H]2CCCN2C(=O)[C@H](Cc2ccc3ccccc3c2)NC(=O)[C@@H]1CCCNC(N)=O`, the IC50 in test [1] was 3.2 µM; in test [2], over 30 µM.
For `CN1C(=O)[C@H](CCCNC(=N)N)NC(=O)[C@@H](Cc2ccc(O)cc2)NC(=O)[C@H](Cc2ccc(-c3ccccc3)cc2)N(C)C(=O)[C@H](Cc2ccc3ccccc3c2)NC(=O)[C@@H]1CCCNC(N)=O`, the IC50 is 4 µM in test [1] and over 30 µM in test [2].
With `CN1C(=O)[C@H](Cc2cnc[nH]2)NC(=O)[C@@H](Cc2ccc(O)cc2)NC(=O)[C@@H]2CCCN2C(=O)[C@H](Cc2ccc3ccccc3c2)NC(=O)[C@@H]1CCCNC(=N)N`, the IC50 is 2 to 24 µM in test [1] and over 30 µM in test [2].
`CN1C(=O)[C@H](CCCNC(N)=O)NC(=O)[C@@H](Cc2ccc(O)cc2)NC(=O)[C@@H]2CCCN2C(=O)[C@H](Cc2ccc3ccccc3c2)NC(=O)[C@@H]1CCCNC(=N)N`: the IC50 in test [1] was 3.6 µM; in test [2], over 30 µM.
Consider `CC(C)[C@H]1C(=O)N[C@H](Cc2ccc(O)cc2)C(=O)N[C@@H](CCCNC(=N)N)C(=O)N(C)[C@@H](CCCNC(N)=O)C(=O)N[C@@H](Cc2ccc3ccccc3c2)C(=O)N1C`, for which the IC50 is 4.9 µM in test [1] and over 30 µM in test [2].
With `CN1C(=O)[C@H](CCCNC(=N)N)NC(=O)[C@@H](Cc2ccc(O)cc2)NC(=O)[C@@H]2C[C@@H]3CCCC[C@@H]3N2C(=O)[C@H](Cc2ccc3ccccc3c2)NC(=O)[C@@H]1CCCNC(N)=O`, the figures for the IC50 in test [1] and in test [2] were 0.35 µM and over 30 µM, respectively.
As for `CN1C(=O)[C@H](Cc2ccccc2)NC(=O)[C@@H](Cc2ccc(O)cc2)NC(=O)[C@@H]2CCCN2C(=O)[C@H](Cc2ccc3ccccc3c2)NC(=O)[C@@H]1CCCNC(=N)N`, the IC50 was 2 to 24 µM in test [1] and over 30 µM in test [2].
`CN1C(=O)[C@H](CCCNC(=N)N)NC(=O)[C@@H](Cc2ccc(O)cc2)NC(=O)[C@H](Cc2ccccc2)N(C)C(=O)[C@H](Cc2ccc3ccccc3c2)NC(=O)[C@@H]1CCCNC(N)=O`: the IC50 in test [1] was 0.6 µM; in test [2] it was over 30 µM.
Regarding `CN1C(=O)[C@H](CCCN)NC(=O)[C@@H](Cc2ccc(O)cc2)NC(=O)[C@@H]2CCCN2C(=O)[C@H](Cc2ccc3ccccc3c2)NC(=O)[C@@H]1CCCNC(=N)N`, the values for the IC50 in test [1] and in test [2] were 2.6 µM and over 30 µM, respectively.
In the case of `CN1C(=O)[C@H](CCCNC(=N)N)NC(=O)[C@@H](Cc2ccc(C(=O)c3ccccc3)cc2)NC(=O)[C@@H]2CCCN2C(=O)[C@H](Cc2ccc3ccccc3c2)NC(=O)[C@@H]1CCCNC(N)=O`, the half-maximal inhibitory concentration (IC50) is 0.72 µM in test [1] and over 30 µM in test [2].
In the case of `CN1C(=O)[C@H](CCCNC(=N)N)NC(=O)[C@@H](CCc2ccccc2)NC(=O)[C@@H]2CCCN2C(=O)[C@H](Cc2ccc3ccccc3c2)NC(=O)[C@@H]1CCCNC(N)=O`, the values for the IC50 in test [1] and in test [2] were 5 µM and over 30 µM, respectively.
Regarding `C[C@@H](O)[C@@H]1NC(=O)[C@@H](Cc2ccc(O)cc2)NC(=O)[C@@H]2CCCN2C(=O)[C@H](Cc2ccc3ccccc3c2)NC(=O)[C@H](CCCNC(=N)N)N(C)C1=O`, the IC50 in test [1] is 2 to 24 µM; in test [2], over 30 µM.
For `CN1C(=O)[C@H](Cc2ccc(O)cc2)NC(=O)[C@@H](Cc2ccc(O)cc2)NC(=O)[C@@H]2CCCN2C(=O)[C@H](Cc2ccc3ccccc3c2)NC(=O)[C@@H]1CCCNC(=N)N`, the IC50 in test [1] was 2 to 24 µM; in test [2] it was over 30 µM.
Take `CN1C(=O)[C@H](CCCNC(=N)N)NC(=O)[C@@H](Cc2ccc(O)cc2)NC(=O)[C@H](Cc2c[nH]c3ccccc23)N(C)C(=O)[C@H](Cc2ccc3ccccc3c2)NC(=O)[C@@H]1CCCNC(N)=O`: the IC50 was determined as 0.52 µM in test [1] and 10 µM in test [2].
Consider `CN1C(=O)[C@H](CCCNC(=N)N)NC(=O)[C@@H](Cc2cccc(F)c2)NC(=O)[C@@H]2CCCN2C(=O)[C@H](Cc2ccc3ccccc3c2)NC(=O)[C@@H]1CCCNC(N)=O`, for which the IC50 in test [1] is 1.3 µM; in test [2], over 30 µM.
`CSCC[C@@H]1NC(=O)[C@@H](Cc2ccc(O)cc2)NC(=O)[C@@H]2CCCN2C(=O)[C@H](Cc2ccc3ccccc3c2)NC(=O)[C@H](CCCNC(=N)N)N(C)C1=O`: the concentration for half-maximal inhibition (IC50) in test [1] was 2 to 24 µM; in test [2] it was over 30 µM.
On to `CN1C(=O)[C@@H]2CCCN2C(=O)[C@@H](Cc2ccc(O)cc2)NC(=O)[C@@H]2CCCN2C(=O)[C@H](Cc2ccc3ccccc3c2)NC(=O)[C@@H]1CCCNC(=N)N`, for which the IC50 was 2 to 24 µM in test [1] and over 30 µM in test [2].
Regarding `CN1C(=O)[C@H](CCCNC(=N)N)NC(=O)[C@@H](Cc2ccc(O)cc2)NC(=O)[C@H](Cc2ccc(O)cc2)N(C)C(=O)[C@H](Cc2ccc3ccccc3c2)NC(=O)[C@@H]1CCCNC(N)=O`, the concentration for half-maximal inhibition (IC50) was 1.8 µM in test [1] and over 30 µM in test [2].
For `CC(C)C[C@@H]1NC(=O)[C@@H](Cc2ccc(O)cc2)NC(=O)[C@@H]2CCCN2C(=O)[C@H](Cc2ccc3ccccc3c2)NC(=O)[C@H](CCCNC(=N)N)N(C)C1=O`, in that order: 2 to 24 µM and over 30 µM.
For `CN1C(=O)[C@H](CCCNC(=N)N)NC(=O)[C@@H](Cc2ccc(O)cc2)NC(=O)[C@@H]2Cc3[nH]c4ccccc4c3CN2C(=O)[C@H](Cc2ccc3ccccc3c2)NC(=O)[C@@H]1CCCNC(N)=O`, in that order: 2.1 µM and over 30 µM.
In the case of `CN1C(=O)[C@H](CCC(N)=O)NC(=O)[C@@H](Cc2ccc(O)cc2)NC(=O)[C@@H]2CCCN2C(=O)[C@H](Cc2ccc3ccccc3c2)NC(=O)[C@@H]1CCCNC(=N)N`, the values for the IC50 in test [1] and in test [2] were 9.5 µM and over 30 µM, respectively.
With `CN1C(=O)[C@@H](CS)NC(=O)[C@@H](Cc2ccc(O)cc2)NC(=O)[C@@H]2CCCN2C(=O)[C@H](Cc2ccc3ccccc3c2)NC(=O)[C@@H]1CCCNC(=N)N`, the figures for the IC50 in test [1] and in test [2] were 0.25 µM and over 30 µM, respectively.
For `CN1C(=O)[C@H](CO)NC(=O)[C@@H](Cc2ccc(O)cc2)NC(=O)[C@@H]2CCCN2C(=O)[C@H](Cc2ccc3ccccc3c2)NC(=O)[C@@H]1CCCNC(=N)N`, the IC50 is 2 to 24 µM in test [1] and over 30 µM in test [2].
`CN1C(=O)[C@H](CCCNC(=N)N)NC(=O)[C@@H](Cc2ccccc2)NC(=O)[C@@H]2CCCN2C(=O)[C@H](Cc2ccc3ccccc3c2)NC(=O)[C@@H]1CCCNC(N)=O`: the figures for the IC50 in test [1] and in test [2] were 1.1 µM and over 30 µM, respectively.
For the molecule `CN1C(=O)[C@H](CCCNC(=N)N)NC(=O)[C@@H](Cc2ccc(O)cc2)NC(=O)[C@@H]2Cc3ccccc3N2C(=O)[C@H](Cc2ccc3ccccc3c2)NC(=O)[C@@H]1CCCNC(N)=O`, the values for the IC50 in test [1] and in test [2] were 0.19 µM and over 30 µM, respectively.
For `CN1C(=O)[C@H](CCCNC(=N)N)NC(=O)[C@@H](Cc2ccc(Br)cc2)NC(=O)[C@@H]2CCCN2C(=O)[C@H](Cc2ccc3ccccc3c2)NC(=O)[C@@H]1CCCNC(N)=O`, in that order: 0.72 µM and over 30 µM.
With `CN1C(=O)[C@H](CCCCNC(=N)N)NC(=O)[C@@H](Cc2ccccc2F)NC(=O)[C@H](Cc2cccc3ccccc23)N(C)C(=O)[C@H](Cc2ccc3ccccc3c2)NC(=O)[C@@H]1CCCCNC(=N)N`, the IC50 in test [1] was 0.45 µM.
